These results are taken from US11332463B2, “Spiropiperidine allosteric modulators of nicotinic acetylcholine receptors” (Merck Sharp & Dohme Corp., priority 2018, dated 2022).

Read-outs that look alike come from different tables or passages of the source. Some results are limits rather than exact numbers.

This experiment concerns the target T1, human α7 nicotinic acetylcholine receptor (HEK cell line stably expressing human RIC-3 and human α7) (Homo sapiens, UniProt P36544).
T1 construct: host or cells: HEK cell line (PrecisION hnAChR α7/RIC-3)
Put plainly: Automated patch-clamp electrophysiology functional assay (Assay A), IonFlux HT, whole-cell population patch. In kind it is cell-based. (In patch-clamp work, channel activity is measured electrically.)

Setting [1] is: HEK cells expressing human α7/RIC-3, test compound with or without 40 μM acetylcholine, holding potential −60 mV, room temperature, read-out: α7 nAChR Potency.
The mark [2] stands for this setting: automated patch-clamp electrophysiology functional assay (Assay A), read-out: α7 nAChR EC50.

T1 sequence (P36544 23-502): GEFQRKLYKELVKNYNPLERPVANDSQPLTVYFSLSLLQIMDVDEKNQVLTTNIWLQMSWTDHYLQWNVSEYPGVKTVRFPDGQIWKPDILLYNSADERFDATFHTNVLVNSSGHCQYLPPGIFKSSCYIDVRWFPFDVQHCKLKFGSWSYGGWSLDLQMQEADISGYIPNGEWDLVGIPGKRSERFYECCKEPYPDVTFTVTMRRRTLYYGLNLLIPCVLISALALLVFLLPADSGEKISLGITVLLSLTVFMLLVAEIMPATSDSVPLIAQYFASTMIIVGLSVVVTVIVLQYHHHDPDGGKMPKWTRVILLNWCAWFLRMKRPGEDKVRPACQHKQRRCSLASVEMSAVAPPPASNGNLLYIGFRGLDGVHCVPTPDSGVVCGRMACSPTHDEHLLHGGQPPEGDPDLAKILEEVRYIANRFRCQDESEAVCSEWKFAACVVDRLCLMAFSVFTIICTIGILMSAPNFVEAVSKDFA

Take `NS(=O)(=O)N1CCC2(CC1)C[C@H]2c1noc(-c2cccc3c2CCC3)n1` [Example E69]: the EC50 under setting [1] is under 100 nM.
Still for that read-out and setting: as for `NS(=O)(=O)N1CCC2(CC1)C[C@H]2c1noc(-c2cc(Br)ccc2C(F)(F)F)n1` [Example D6], the figure is 100 to 500 nM.
With `Cc1ccc(C)c(-c2nc(C3C(F)(F)C34C3CCC4CN(S(N)(=O)=O)C3)no2)c1` (single isomer, unassigned) [Example K1], the EC50 reads like this: under setting [1], under 100 nM; under setting [2], 87 nM.
As to `NS(=O)(=O)N1CCC2(CC1)C[C@H]2c1noc(Cc2cc(C(F)(F)F)ccc2F)n1` [Example E5], the EC50 under setting [1] is 500 to 5000 nM.
On to `N#Cc1ccccc1-c1nc([C@@H]2CC23CCN(S(N)(=O)=O)CC3)no1` [Example D3], for which the EC50 runs as follows: under setting [1], 5000 to 50000 nM; under setting [2], 5300 nM.
Consider `NS(=O)(=O)N1CCC2(C(F)C1)C(c1nc(-c3conc3C3CC3)no1)C2(F)F` (single isomer, unassigned) [Example I13], for which the EC50 reads like this: under setting [1], 500 to 5000 nM; under setting [2], 600 nM.
The matching figures for `NS(=O)(=O)N1CCC2(CC1)[C@H](c1cc(-c3ccc(F)cc3C(F)(F)F)on1)C2(F)F` [Example G9]: under 100 nM and 78 nM.
The matching figures for `NS(=O)(=O)N1CCC2(CC2c2nc(-c3cccc(OC(F)F)c3)no2)C(F)C1` (single isomer, unassigned) [Example I1]: 500 to 5000 nM and 750 nM.
The corresponding values for `NS(=O)(=O)N1CCC2(CC1)CC2c1nc(-c2c(C(F)(F)F)noc2C2CC2)no1` (stereo not drawn) [Example C12] are 100 to 500 nM and 170 nM.
Turning to `COc1ccc(-c2nc([C@@H]3CC34CCN(S(N)(=O)=O)CC4)no2)cc1` [Example D13], the EC50 reads like this: under setting [1], 500 to 5000 nM; under setting [2], 700 nM.
Consider `NS(=O)(=O)N1CCC2(CC1)C[C@H]2c1noc(-c2ccnnc2C2CC2)n1` [Example E50], for which the EC50 was 500 to 5000 nM under setting [1] and 1400 nM under setting [2].
Take `NS(=O)(=O)N1CCC2(CC1)C[C@H]2c1nc(-c2cc(F)ccc2C(F)(F)F)no1` [Example A4]: the EC50 is 500 to 5000 nM under setting [1] and 850 nM under setting [2].
With `COc1ccc(Cl)cc1-c1noc([C@H]2CC23CCN(S(N)(=O)=O)CC3)n1` [Example H1], the EC50 under setting [1] lay within 5000 to 50000 nM.
Turning to `CCc1ncoc1-c1nc([C@@H]2CC23CCN(S(N)(=O)=O)CC3)no1` [Example E24], the EC50 by setting is: under setting [1], 500 to 5000 nM; under setting [2], 3600 nM.
The corresponding values for `NS(=O)(=O)N1CCC2(CC1)[C@H](c1noc(-c3cccnc3)n1)C2(F)F` [Example E56] are 500 to 5000 nM and 2600 nM.
The corresponding values for `NS(=O)(=O)N1CCC2(C(F)C1)C(c1nc(-c3ccc(F)cc3C(F)(F)F)no1)C2(F)F` (stereo not drawn) [Example I16] are 500 to 5000 nM and 2100 nM.
The corresponding values for `COc1ccc(Cl)cc1-c1noc([C@@H]2CC23CCN(S(N)(=O)=O)CC3)n1` [Example A1] are 100 to 500 nM and 490 nM.
As for `NS(=O)(=O)N1CCC2(CC1)C[C@H]2c1noc(-c2conc2C2CC2)n1` [Example E26], the EC50 reads like this: under setting [1], 500 to 5000 nM; under setting [2], 570 nM.
On to `NS(=O)(=O)N1CCC2(CC1)C[C@H]2c1noc(-c2ccccc2-n2cccn2)n1` [Example E77], for which the EC50 is, setting by setting: under setting [1], 500 to 5000 nM; under setting [2], 850 nM.
The matching figures for `NS(=O)(=O)N1CCC2(CC1)[C@H](c1nsc(-c3ccc(F)cc3C(F)(F)F)n1)C2(F)F` (stereo in doubt) [Example 37, 1,1-Difluoro-2-{5-[4-fluoro-2-(trifluoromethyl)phenyl]-1,2,4-thiadiazol-3-yl}-6-azaspiro[2.5]octane-6-sulfonamide]: 500 to 5000 nM and 1200 nM.
The corresponding values for `NS(=O)(=O)N1CCC2(CC1)C[C@H]2c1noc(-c2ccc(F)cc2OC(F)F)n1` [Example D24] are 100 to 500 nM and 240 nM.
The matching figures for `NS(=O)(=O)N1CCC2(CC1)C[C@H]2c1noc(-c2conc2C(F)(F)F)n1` [Example E29]: 500 to 5000 nM and 1600 nM.
For `Cn1nc(C(F)(F)F)cc1-c1nc([C@@H]2C(F)(F)C23CCN(S(N)(=O)=O)CC3)no1` [Example E45], the EC50 by setting is: under setting [1], 500 to 5000 nM; under setting [2], 550 nM.
In the case of `NS(=O)(=O)N1CCC2(CC2c2nc(-c3cccc(OC(F)F)c3)no2)C(F)C1` (stereo not drawn) [Example 4, 1-{3-[3-(Difluoromethoxy)phenyl]-1,2,4-oxadiazol-5-yl}-4-fluoro-6-azaspiro[2.5]octane-6-sulfonamide], the EC50 runs as follows: under setting [1], 100 to 500 nM; under setting [2], 350 nM.
With `NS(=O)(=O)N1CCC2(CC1)C[C@H]2c1noc(-c2cccnc2OCC(F)(F)F)n1` [Example E59], the EC50 runs as follows: under setting [1], 100 to 500 nM; under setting [2], 220 nM.
As for `NS(=O)(=O)N1CCC2(CC1)C[C@H]2c1noc(Cc2cc(F)ccc2C(F)(F)F)n1` [Example E9], the EC50 under setting [1] was in the range of 500 to 5000 nM.
Turning to `COc1ccc(Cl)cc1-c1noc(C2CC23CCN(S(=O)(=O)NCc2ccccn2)CC3)n1` (racemic) [Example B11], the EC50 under setting [1] lay in the range of 500 to 5000 nM and the EC50 under setting [2] was determined as 3500 nM.
For the compound `NS(=O)(=O)N1CCC2(CC1)C[C@H]2c1noc(C2CC3(CCC3)C2)n1` [Example E20], the EC50 is 500 to 5000 nM under setting [1] and 2700 nM under setting [2].
Regarding `COc1ccc(Cl)cc1-c1noc(C2CC23CCN(S(=O)(=O)CCc2ccccc2)CC3)n1` (racemic) [Example B5], the EC50 is, setting by setting: under setting [1], 500 to 5000 nM; under setting [2], 3000 nM.
The matching figures for `CC(C)n1nccc1-c1nc([C@@H]2CC23CCN(S(N)(=O)=O)CC3)no1` [Example E62]: 500 to 5000 nM and 1500 nM.
The matching figures for `NS(=O)(=O)N1CCC2(CC1)C(c1nsc(N3CCCCC3)n1)C2(F)F` (racemic) [Example J2]: 500 to 5000 nM and 1000 nM.
The matching figures for `Cc1cnn(C2CC2)c1-c1nc([C@@H]2CC23CCN(S(N)(=O)=O)CC3)no1` [Example E64]: 500 to 5000 nM and 520 nM.
In the case of `Cc1ccc(C)c(-c2nc([C@@H]3CC34CCN(S(N)(=O)=O)CC4)no2)n1` [Example E16], the EC50 is, setting by setting: under setting [1], 500 to 5000 nM; under setting [2], 1300 nM.
The matching figures for `COc1ccc(Cl)cc1-c1noc(C2CC23CCN(S(=O)(=O)c2ccn(C)n2)CC3)n1` (racemic) [Example B4]: 500 to 5000 nM and 3200 nM.
The corresponding values for `Cc1cnc(OC(F)F)cc1-c1nc([C@@H]2C(F)(F)C23CCN(S(N)(=O)=O)CC3)no1` [Example 13, (2R)-2-{5-[2-(Difluoromethoxy)-5-methylpyridin-4-yl]-1,2,4-oxadiazol-3-yl}-1,1-difluoro-6-azaspiro[2.5]octane-6-sulfonamide] are under 100 nM and 73 nM.
For the compound `Cc1noc(C)c1-n1cc([C@@H]2CC23CCN(S(N)(=O)=O)CC3)cn1` [Example G3], the EC50 under setting [1] fell in the range of 500 to 5000 nM.
Turning to `NS(=O)(=O)N1CCC2(CC1)[C@H](c1noc(-c3c4c(nn3C3CC3)CCCC4)n1)C2(F)F` [Example E47], under setting [1], the EC50 lay in the range of 100 to 500 nM.
For the compound `NS(=O)(=O)N1CCC2(CC1)[C@H](c1cc(-c3ccnc(OC(F)F)c3)no1)C2(F)F` [Example G6], the EC50 reads like this: under setting [1], under 100 nM; under setting [2], 86 nM.
For the compound `Cc1cnn(C)c1-c1nc([C@@H]2C(F)(F)C23CCN(S(N)(=O)=O)CC3)no1` [Example 9, (2R)-2-[5-(1,4-Dimethyl-1H-pyrazol-5-yl)-1,2,4-oxadiazol-3-yl]-1,1-difluoro-6-azaspiro[2.5]octane-6-sulfonamide], the EC50 was under 100 nM under setting [1] and 75 nM under setting [2].
The corresponding values for `NS(=O)(=O)N1CCC2(CC1)[C@H](c1csc(-c3conc3C3CC3)n1)C2(F)F` [Example G4] are 100 to 500 nM and 110 nM.
For the compound `NS(=O)(=O)N1CCC2(CC1)C[C@H]2c1noc(-c2ccnc(OCC(F)(F)F)c2)n1` [Example E18], the EC50 reads like this: under setting [1], 500 to 5000 nM; under setting [2], 1100 nM.
With `NS(=O)(=O)N1CCC2(CC1)C[C@H]2c1noc(C2(c3cccc(C(F)(F)F)c3)CC2)n1` [Example E14], the EC50 reads like this: under setting [1], 500 to 5000 nM; under setting [2], 2000 nM.
The matching figures for `Cn1nc2c(c1-c1nc([C@@H]3CC34CCN(S(N)(=O)=O)CC4)no1)CCCC2` [Example E65]: 100 to 500 nM and 420 nM.
With `NS(=O)(=O)N1CCC2(CC1)[C@H](c1noc(-c3cc(C(F)(F)F)nn3C3CC3)n1)C2(F)F` [Example 29, (2R)-2-{5-[1-Cyclopropyl-3-(trifluoromethyl)-1H-pyrazol-5-yl]-1,2,4-oxadiazol-3-yl}-1,1-difluoro-6-azaspiro[2.5]octane-6-sulfonamide], the EC50 is 100 to 500 nM under setting [1] and 170 nM under setting [2].
The corresponding values for `NS(=O)(=O)N1CCC2(CC1)C[C@H]2c1nc(-c2conc2C2CC2)co1` [Example 23, (1R)-1-[4-(3-Cyclopropylisoxazol-4-yl)-1,3-oxazol-2-yl]-6-azaspiro[2.5]octane-6-sulfonamide] are 500 to 5000 nM and 1400 nM.
The corresponding values for `Cc1onc(C2CC2)c1-c1noc(C2C(F)(F)C23CCN(S(N)(=O)=O)CC3)n1` (stereo not drawn) [Example C5] are under 100 nM and 11 nM.
Regarding `NS(=O)(=O)N1CCC2(CC1)C[C@H]2c1noc(-c2ccccc2)n1` [Example D8], the EC50 reads like this: under setting [1], 500 to 5000 nM; under setting [2], 1300 nM.
The corresponding values for `COc1ccc(Cl)cc1-c1noc(C2CC23CCN(S(=O)(=O)Cc2ccccn2)CC3)n1` (racemic) [Example B1] are 500 to 5000 nM and 2300 nM.
Consider `Cc1ncccc1-c1nc([C@@H]2CC23CCN(S(N)(=O)=O)CC3)no1` [Example E2], for which the EC50 was 500 to 5000 nM under setting [1] and 1100 nM under setting [2].
`NS(=O)(=O)N1CCC2(C(F)C1)C(c1nc(-c3ccc(F)cc3C(F)(F)F)no1)C2(F)F` (stereo not drawn) [Example I15]: the EC50 under setting [1] fell in the range of 500 to 5000 nM and the EC50 under setting [2] was 1400 nM.
